Experimental data from patent publication US20090105251A1, “Renin inhibitors” (priority 2007, published 2009).
pIC50: −log10 of the molar value.

Biological target: T1, Recombinant human renin (Homo sapiens, UniProt P00797)
T1 construct: isolate the active form (residues 67-406); made in house
T1 sequence (P00797 67-406): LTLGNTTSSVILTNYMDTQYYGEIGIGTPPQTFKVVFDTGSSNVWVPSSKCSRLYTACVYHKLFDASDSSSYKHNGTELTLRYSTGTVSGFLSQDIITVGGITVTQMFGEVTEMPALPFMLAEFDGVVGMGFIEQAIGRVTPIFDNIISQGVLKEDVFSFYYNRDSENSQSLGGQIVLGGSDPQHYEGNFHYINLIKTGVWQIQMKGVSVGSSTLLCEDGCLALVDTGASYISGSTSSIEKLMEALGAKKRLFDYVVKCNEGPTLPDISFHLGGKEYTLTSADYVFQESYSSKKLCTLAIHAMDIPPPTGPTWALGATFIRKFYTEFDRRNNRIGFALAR
Assay: In vitro enzymatic activity assay of renin inhibitors (fluorogenic peptide substrate)
Assay type: biochemical
Details: recombinant human renin 3 nM, 1 μM substrate QXL520/HiLyteFluo488 peptide, pH 7.4, 37° C., fluorescence; values given as ranges; read-out: IC50 of Exemplified Compounds Against Renin, IC50
From the text: Test compounds in varying concentrations may be reacted with recombinant human renin in the presence of substrate, e.g., QXL520-γ-Abu-Ile-His-Pro-Phe-His-Leu-Val-Ile-His-Thr-Lys (HiLyteFluo488)-Arg-OH (Anaspec, San Jose, Calif.). The reaction can be followed kinetically using fluorescence (excitation λ=485 nm; emission λ=538 nm). Inhibition constants (IC50) may be calculated by non-linear curve fitting of the compound concentrations and fluorescence intensities to the standard IC50 equation.
Solutions of test compounds in varying concentrations (≦2 mM final concentration) are prepared in dimethyl sulfoxide (DMSO) and then diluted into assay buffer comprising 50 mM Hepes, 1 mM EDTA, 1 mM DTT, 0.1 mg/ml BSA, 0.01% Brij35, pH 7.4. Alternatively, the assay can be performed with a high BSA concentration, wherein the buffer contains an additional 2% BSA.
Recombinant human renin (3 nM final concentration) is added to the dilutions and pre-incubated with the compounds for 10 minutes at 37° C. As described in Examples A-C above, human renin can be obtained by expressing preprorenin (residue 1-406) in mammalian cells, treating the prorenin (residues 24-406) contained in the culture supernatant with trypsin, and isolate the active form (residues 67-406). After pre-incubation, the reaction is initiated with 1 μM of substrate QXL520-γ-Abu-Ile-His-Pro-Phe-His-Leu-Val-Ile-His-Thr-Lys (HiLyteFluo488)-Arg-OH (Anaspec, San Jose, Calif.). The final DMSO in the assay is 5%. The total volume of the reaction mixture is 20 μL, which can be placed on Greiner 384-well small volume plates.
Renin activity may be determined via fluorescence (excitation λ=485 nm; emission λ=538 nm), e.g., on a Molecular Devices SPECTROmax GEMINI XPS. The fluorescence intensity is determined upon the addition of substrate and determined again after incubation at 37° C. for one hour. The fluorescence intensity of a blank (no inhibition) using vehicle alone is also determined. Renin activity is linearly proportional to the change in fluorescence observed (final−initial).
The percent inhibition of renin at a given compound concentration is defined as:
100%×[1−(Fcompound/Fblank)]
where Fcompound is the observed fluorescence at a given concentration of test compound and Fblank is the observed fluorescence in the presence of vehicle alone.
The pIC50 value (negative log of the molar concentration of the compound that produces 50% inhibition) of a test compound is calculated by non-linear least squares curve fitting of the equation:
Percent Inhibition=100%/(1+(10^−pIC50/10^log [I]))
to percent inhibition versus compound concentration. The 50% inhibitory concentration (IC50) of a test compound is calculated by raising 10 to the negative pIC50 (10^−pIC50).

Q: With `O=C(c1cc(-c2ccc(Cl)cc2)cs1)N1CCNC[C@H]1Cc1ccccc1` [Example 36, (R)-(2-benzylpiperazin-1-yl)(4-(4-chlorophenyl)thiophen-2-yl)methanone] as the molecule, how does the pIC50 read?
A: The pIC50 was 4.30 to 6.00.

Q: With `O=C(c1cccn1-c1ccccc1Oc1ccccc1)N1CCNC[C@H]1Cc1ccccc1` [Example 42, ((R)-2-benzylpiperazin-1-yl)(1-(2-phenoxyphenyl)-1H-pyrrol-2-yl)methanone] as the molecule, how does the pIC50 read?
A: The pIC50 was 4.30 to 6.00.

Q: `O=C(c1ccccc1-c1ccc(F)cc1)N1CCNC[C@H]1Cc1ccccc1` [Example 31, (R)-(2-benzylpiperazin-1-yl)(4′-fluorobiphenyl-2-yl)methanone] was tested. Which pIC50 did it give?
A: Its pIC50 is 4.30 to 6.00.

Q: How did the pIC50 turn out when `O=C(c1ccccc1)c1ccccc1C(=O)N1CCNC[C@H]1Cc1ccccc1` [Example 22, (R)-(2-benzoylphenyl)(2-benzylpiperazin-1-yl)methanone] was run?
A: Its pIC50 is 4.30 to 6.00.

Q: How did the pIC50 turn out when `N#Cc1cccnc1Oc1ccccc1-c1ccsc1C(=O)N1CCNC[C@H]1Cc1ccccc1` [Example 11, 2-(2-(2-((R)-2-benzylpiperazine-1-carbonyl)thiophen-3-yl)phenoxy)nicotinonitrile] was run?
A: Its pIC50 is 4.30 to 6.00.

Q: `CC(=O)NCCc1ccccc1Oc1ccccc1-c1ccsc1C(=O)N1CCNC[C@H]1Cc1ccccc1` [Example 39, N-(2-(2-(2-((R)-2-benzylpiperazine-1-carbonyl)thiophen-3-yl)phenoxy)phenethyl)acetamide] was tested. Which pIC50 did it give?
A: The pIC50 was greater than 6.00.

Q: How did the pIC50 turn out when `O=C(c1sccc1-c1ccccc1Oc1ccccc1)N1CCNC[C@H]1Cc1ccccc1` [Example 1, ((R)-2-benzylpiperazin-1-yl)(3-(2-phenoxyphenyl)thiophen-2-yl)methanone] was run?
A: The pIC50 was greater than 6.00.

Q: `O=C(c1cncn1-c1cccc2ccccc12)N1CCNC[C@H]1Cc1ccccc1` [Example 26, ((R)-2-benzylpiperazin-1-yl)(1-(naphthalen-1-yl)-1H-imidazol-5-yl)methanone] was tested. Which pIC50 did it give?
A: The pIC50 was less than 4.00.

Q: How did the pIC50 turn out when `N#Cc1ccccc1Sc1ccccc1C(=O)N1CCNC[C@H]1Cc1ccccc1` [Example 20, (R)-2-(2-(2-benzylpiperazine-1-carbonyl)phenylthio)benzonitrile] was run?
A: Its pIC50 is 4.30 to 6.00.

Q: With `O=C(c1cncn1-c1ccccc1-c1ccccc1)N1CCNC[C@H]1Cc1ccccc1` [Example 27, ((R)-2-benzylpiperazin-1-yl)(1-(biphenyl-2-yl)-1H-imidazol-5-yl)methanone] as the molecule, how does the pIC50 read?
A: The pIC50 was 4.30 to 6.00.

Q: How did the pIC50 turn out when `O=C(c1ccsc1-c1ccccc1CN1CCOCC1)N1CCNC[C@H]1Cc1ccccc1` [Example 41, ((R)-2-benzylpiperazin-1-yl)(2-(2-(morpholinomethyl)phenyl)-thiophen-3-yl)methanone] was run?
A: Its pIC50 is 4.30 to 6.00.

Q: `CC(=O)NCc1cccnc1Oc1ccccc1-c1ccsc1C(=O)N1CCNC[C@H]1Cc1ccccc1` [Example 40, N-((2-(2-(2-((R)-2-benzylpiperazine-1-carbonyl)thiophen-3-yl)phenoxy)pyridin-3-yl)methyl)acetamide] was tested. Which pIC50 did it give?
A: Its pIC50 is 4.30 to 6.00.

Q: With `COc1ccc(C(=O)c2ccccc2C(=O)N2CCNC[C@H]2Cc2ccccc2)cc1` [Example 25, (R)-(2-benzylpiperazin-1-yl)(2-(4-methoxybenzoyl)phenyl)methanone] as the molecule, how does the pIC50 read?
A: The pIC50 was 4.00 to 4.30.

Q: How did the pIC50 turn out when `O=C(c1cc(F)ccc1-c1ccccc1Oc1ccccc1)N1CCNC[C@H]1Cc1ccccc1` [Example 16, ((R)-2-benzylpiperazin-1-yl)(4-fluoro-2′-phenoxybiphenyl-2-yl)methanone] was run?
A: Its pIC50 is 4.30 to 6.00.

Q: `O=C(c1ccccc1Cc1ccccc1)N1CCNC[C@H]1Cc1ccccc1` [Example 21, (R)-(2-benzylphenyl)(2-benzylpiperazin-1-yl)methanone] was tested. Which pIC50 did it give?
A: The pIC50 was 4.30 to 6.00.

Q: How did the pIC50 turn out when `Cc1ccc(-c2ccccc2C(=O)N2CCNC[C@H]2Cc2ccccc2)cc1C` [Example 3, (R)-(2-benzylpiperazin-1-yl)(3′,4′-dimethylbiphenyl-2-yl)methanone] was run?
A: The pIC50 was greater than 6.00.

Q: How did the pIC50 turn out when `O=C(c1nnc(-c2ccccc2-c2ccccc2)o1)N1CCNC[C@H]1Cc1ccccc1` [Example 46, (R)-(2-benzylpiperazin-1-yl)(5-(biphenyl-2-yl)-1,3,4-oxadiazol-2-yl)methanone] was run?
A: The pIC50 was 4.30 to 6.00.

Q: `O=C(c1ccccc1OCc1ccccc1)N1CCNC[C@H]1Cc1ccccc1` [Example 23, (R)-(2-(benzyloxy)phenyl)(2-benzylpiperazin-1-yl)methanone] was tested. Which pIC50 did it give?
A: The pIC50 was 4.30 to 6.00.

Q: `CC(C)(C)n1ncc(C(=O)N2CCNC[C@H]2Cc2ccccc2)c1-c1ccccc1` [Example 38, (R)-(2-benzylpiperazin-1-yl)(1-tert-butyl-5-phenyl-1H-pyrazol-4-yl)methanone] was tested. Which pIC50 did it give?
A: The pIC50 was 4.30 to 6.00.

Q: How did the pIC50 turn out when `O=C(c1nccn1-c1ccccc1C(F)(F)F)N1CCNC[C@H]1Cc1ccccc1` [Example 8, ((R)-2-benzylpiperazin-1-yl)(1-(2-(trifluoromethyl)phenyl)-1H-imidazol-2-yl)methanone] was run?
A: Its pIC50 is 4.00 to 4.30.

Q: `N#Cc1ccccc1Oc1ccccc1-c1ccsc1C(=O)N1CCNC[C@H]1Cc1ccccc1` [Example 10, 2-(2-(2-((R)-2-benzylpiperazine-1-carbonyl)thiophen-3-yl)phenoxy)benzonitrile] was tested. Which pIC50 did it give?
A: The pIC50 was 4.30 to 6.00.

Q: How did the pIC50 turn out when `O=C(c1ccsc1-c1ccccc1Oc1ccccc1)N1CCNC[C@H]1Cc1ccccc1` [Example 12, ((R)-2-benzylpiperazin-1-yl)(2-(2-phenoxyphenyl)thiophen-3-yl)methanone] was run?
A: Its pIC50 is greater than 6.00.

Q: How did the pIC50 turn out when `CC1(C)Cc2cccc(C(=O)N3CCNC[C@H]3Cc3ccccc3)c2O1` [Example 35, (R)-(2-benzylpiperazin-1-yl)(2,2-dimethyl-2,3-dihydrobenzofuran-7-yl)methanone] was run?
A: Its pIC50 is 4.30 to 6.00.

Q: With `O=C1CC(C(=O)N2CCNC[C@H]2Cc2ccccc2)CN1C(c1ccccc1)c1ccccc1` (stereo partly drawn) [Example 24, 1-benzhydryl-4-((R)-2-benzylpiperazine-1-carbonyl)pyrrolidin-2-one] as the molecule, how does the pIC50 read?
A: Its pIC50 is 4.30 to 6.00.

Q: `Cc1cc(C)c(C#N)c(Oc2ccccc2-c2ccsc2C(=O)N2CCNC[C@H]2Cc2ccccc2)n1` [Example 9, 2-(2-(2-((R)-2-benzylpiperazine-1-carbonyl)thiophen-3-yl)phenoxy)-4,6-dimethylnicotinonitrile] was tested. Which pIC50 did it give?
A: Its pIC50 is 4.30 to 6.00.

Q: `O=C(c1ccc(F)cc1-c1ccccc1Oc1ccccc1)N1CCNC[C@H]1Cc1ccccc1` [Example 15, ((R)-2-benzylpiperazin-1-yl)(5-fluoro-2′-phenoxybiphenyl-2-yl)methanone] was tested. Which pIC50 did it give?
A: Its pIC50 is 4.30 to 6.00.

Q: `Cc1cc2cc(C(=O)N3CCNC[C@H]3Cc3ccccc3)n(Cc3ccccc3)c2s1` [Example 34, (R)-(6-benzyl-2-methyl-6H-thieno[2,3-b]pyrrol-5-yl)(2-benzylpiperazin-1-yl)methanone] was tested. Which pIC50 did it give?
A: The pIC50 was 4.30 to 6.00.

Q: With `O=C(c1ccc(-c2ccccc2Oc2ccccc2)s1)N1CCNC[C@H]1Cc1ccccc1` [Example 44, (R)-(2-benzylpiperazin-1-yl)(5-(2-phenoxyphenyl)thiophen-2-yl)methanone] as the molecule, how does the pIC50 read?
A: Its pIC50 is 4.30 to 6.00.

Q: With `O=C(c1c(-c2ccccc2Cl)noc1C1CC1)N1CCNC[C@H]1Cc1ccccc1` [Example 33, ((R)-2-benzylpiperazin-1-yl)(3-(2-chlorophenyl)-5-cyclopropylisoxazol-4-yl)methanone] as the molecule, how does the pIC50 read?
A: Its pIC50 is 4.30 to 6.00.

Q: How did the pIC50 turn out when `O=C(c1ccnn1-c1ccccc1)N1CCNC[C@H]1Cc1ccccc1` [Example 6, (R)-(2-benzylpiperazin-1-yl)(1-phenyl-1H-pyrazol-5-yl)methanone] was run?
A: The pIC50 was 4.30 to 6.00.

Q: How did the pIC50 turn out when `O=C(c1ccc(-c2ccccc2Oc2ccccc2)o1)N1CCNC[C@H]1Cc1ccccc1` [Example 45, (R)-(2-benzylpiperazin-1-yl)(5-(2-phenoxyphenyl)furan-2-yl)methanone] was run?
A: Its pIC50 is 4.30 to 6.00.

Q: How did the pIC50 turn out when `O=C(c1ccccc1-c1nc2ccccc2s1)N1CCNC[C@H]1Cc1ccccc1` [Example 32, (R)-(2-(benzo[d]thiazol-2-yl)phenyl)(2-benzylpiperazin-1-yl)methanone] was run?
A: Its pIC50 is 4.30 to 6.00.

Q: `Cc1n[nH]c(C)c1-c1ccccc1C(=O)N1CCNC[C@H]1Cc1ccccc1` [Example 28, ((R)-2-benzylpiperazin-1-yl)(2-(3,5-dimethyl-1H-pyrazol-4-yl)phenyl)methanone] was tested. Which pIC50 did it give?
A: The pIC50 was less than 4.00.
